# Reference: ChEMBL document CHEMBL3763016, “Design, synthesis and biological evaluation of 3'-benzylated analogs of 3'-epi-neoponkoranol as potent α-glucosidase inhibitors” (Eur J Med Chem, 2016)
# Tests used:
# [1] = Inhibition of rat intestinal maltase using maltose as substrate incubated for 30 mins by glucose-oxidase method
# [2] = target: T1, Sucrase-isomaltase, intestinal (Rattus norvegicus, UniProt P23739); test: Inhibition of rat intestinal sucrase using sucrose as substrate incubated for 30 mins by glucose-oxidase method
# T1 sequence (P23739 1-1013 limits assumed): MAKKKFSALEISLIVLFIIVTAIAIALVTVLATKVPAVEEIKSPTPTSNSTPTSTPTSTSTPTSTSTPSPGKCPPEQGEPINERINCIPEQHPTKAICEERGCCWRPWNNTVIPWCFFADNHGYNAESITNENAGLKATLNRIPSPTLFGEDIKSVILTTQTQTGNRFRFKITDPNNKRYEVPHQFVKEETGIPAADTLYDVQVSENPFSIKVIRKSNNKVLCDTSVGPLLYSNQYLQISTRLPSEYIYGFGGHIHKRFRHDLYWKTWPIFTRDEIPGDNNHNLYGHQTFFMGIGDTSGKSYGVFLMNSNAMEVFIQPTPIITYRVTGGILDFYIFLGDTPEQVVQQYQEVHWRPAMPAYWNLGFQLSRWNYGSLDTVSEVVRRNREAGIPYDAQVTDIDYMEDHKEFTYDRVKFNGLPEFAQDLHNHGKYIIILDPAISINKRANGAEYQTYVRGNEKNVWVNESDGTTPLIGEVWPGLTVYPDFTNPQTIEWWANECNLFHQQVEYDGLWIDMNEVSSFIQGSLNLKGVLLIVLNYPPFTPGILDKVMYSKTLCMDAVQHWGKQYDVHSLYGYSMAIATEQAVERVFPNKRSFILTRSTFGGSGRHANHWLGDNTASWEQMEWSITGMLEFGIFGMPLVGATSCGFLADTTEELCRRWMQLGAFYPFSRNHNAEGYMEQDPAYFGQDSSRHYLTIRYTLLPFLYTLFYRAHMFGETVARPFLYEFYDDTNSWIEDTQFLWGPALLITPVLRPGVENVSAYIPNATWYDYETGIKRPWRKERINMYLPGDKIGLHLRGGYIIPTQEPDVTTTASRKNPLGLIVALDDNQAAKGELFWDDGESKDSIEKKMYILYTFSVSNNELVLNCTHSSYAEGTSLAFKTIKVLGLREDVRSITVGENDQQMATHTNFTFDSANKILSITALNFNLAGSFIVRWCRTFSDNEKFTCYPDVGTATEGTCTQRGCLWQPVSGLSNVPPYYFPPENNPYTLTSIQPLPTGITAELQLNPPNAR
# T1 sequence (P23739 1014-1841 limits assumed): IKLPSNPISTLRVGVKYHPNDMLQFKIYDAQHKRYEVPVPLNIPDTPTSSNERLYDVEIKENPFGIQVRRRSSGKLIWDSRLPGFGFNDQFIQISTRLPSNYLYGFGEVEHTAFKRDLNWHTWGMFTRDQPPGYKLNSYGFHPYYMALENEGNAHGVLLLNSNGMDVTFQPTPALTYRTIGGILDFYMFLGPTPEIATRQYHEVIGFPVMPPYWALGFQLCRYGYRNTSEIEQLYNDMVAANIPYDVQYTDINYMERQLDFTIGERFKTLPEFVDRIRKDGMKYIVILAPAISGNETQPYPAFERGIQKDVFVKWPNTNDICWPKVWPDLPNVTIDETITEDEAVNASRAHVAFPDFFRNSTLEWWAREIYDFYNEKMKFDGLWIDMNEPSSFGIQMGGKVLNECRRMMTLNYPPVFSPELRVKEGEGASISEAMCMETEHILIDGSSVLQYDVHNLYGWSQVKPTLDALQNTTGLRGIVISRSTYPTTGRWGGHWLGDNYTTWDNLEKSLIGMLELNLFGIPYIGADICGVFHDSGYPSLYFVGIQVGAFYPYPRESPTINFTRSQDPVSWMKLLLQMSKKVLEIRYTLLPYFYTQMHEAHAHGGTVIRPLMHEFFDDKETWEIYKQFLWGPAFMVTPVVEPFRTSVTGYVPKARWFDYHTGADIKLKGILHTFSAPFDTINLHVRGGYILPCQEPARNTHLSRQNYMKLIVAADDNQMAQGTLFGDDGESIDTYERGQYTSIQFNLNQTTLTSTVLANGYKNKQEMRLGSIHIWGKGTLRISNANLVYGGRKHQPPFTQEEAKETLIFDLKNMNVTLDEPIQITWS
# [3] = Competitive inhibition of rat intestinal maltase using maltose as substrate incubated for 30 mins by Lineweaver-Burk plot analysis
# [4] = target: T1, Sucrase-isomaltase, intestinal; test: Competitive inhibition of rat intestinal sucrase using sucrose as substrate incubated for 30 mins by Lineweaver-Burk plot analysis
# [5] = Cytotoxicity against human HELF cells by MTT assay; type: cell-based
# [6] = target: Sucrase-isomaltase, intestinal (Rattus norvegicus) (UniProt P23739); test: Potency index, ratio of acarbose IC50 to compound IC50 for rat intestinal sucrase
# Sucrase-isomaltase, intestinal (Rattus norvegicus), sequence (P23739 1-1013 limits assumed): as the sequence (P23739 1-1013 limits assumed) above
# Sucrase-isomaltase, intestinal (Rattus norvegicus), sequence (P23739 1014-1841 limits assumed): as the sequence (P23739 1014-1841 limits assumed) above
Compound,IC50 [1],IC50 [2],Ki [3],Ki [4],Ratio IC50 [6],IC50 [5]
OC[C@@H]1[C@@H](O)[C@H](O)C[S+]1C[C@@H](O)[C@H](OCc1ccccc1Cl)[C@H](O)[C@@H](O)CO.[Cl-] (some centres undefined),8200 nM,700 nM,0.45 µg/mL,210 nM,–,> 500000 nM
OC[C@@H]1[C@@H](O)[C@H](O)C[S+]1C[C@@H](O)[C@H](OCc1ccccc1C(F)(F)F)[C@H](O)[C@@H](O)CO.[Cl-] (some centres undefined),2500 nM,200 nM,0.28 µg/mL,216 nM,10,> 500000 nM
OCC(CO)N[C@H]1C[C@](O)(CO)[C@@H](O)[C@H](O)[C@H]1O [VOGLIBOSE],–,300 nM,–,–,–,–
OC[C@@H]1[C@@H](O)[C@H](O)C[S+]1C[C@@H](O)[C@H](O)[C@H](O)[C@@H](O)CO (some centres undefined),2000 nM,300 nM,–,–,–,–
CCO[C@H]([C@H](O)[C@@H](O)CO)[C@H](O)C[S+]1C[C@@H](O)[C@H](O)[C@H]1CO (some centres undefined),9500 nM,270 nM,–,–,–,–
OC[C@@H]1[C@@H](O)[C@H](O)C[S+]1C[C@@H](O)[C@H](OCc1ccc(C(F)(F)F)cc1)[C@H](O)[C@@H](O)CO.[Cl-] (some centres undefined),10000 nM,4600 nM,0.74 µg/mL,786 nM,–,–

# The next lines start with results.
IC50 [1],IC50 [2],Ki [3],Ki [4],Ratio IC50 [6],Compound,IC50 [5]
6700 nM,210 nM,–,–,–,O=[N+]([O-])c1cccc(CO[C@H]([C@H](O)[C@@H](O)CO)[C@H](O)C[S+]2C[C@@H](O)[C@H](O)[C@H]2CO)c1 (some centres undefined),–
5200 nM,510 nM,–,–,–,OC[C@@H]1[C@@H](O)[C@H](O)C[S+]1C[C@@H](O)[C@H](OCc1cccc(Cl)c1)[C@H](O)[C@@H](O)CO (some centres undefined),–
32400 nM,4200 nM,–,–,–,O=[N+]([O-])c1ccc(CO[C@H]([C@H](O)[C@@H](O)CO)[C@H](O)C[S+]2C[C@@H](O)[C@H](O)[C@H]2CO)cc1 (some centres undefined),–
9600 nM,450 nM,0.66 µg/mL,354 nM,–,OC[C@@H]1[C@@H](O)[C@H](O)C[S+]1C[C@@H](O)[C@H](OCc1cccc(C(F)(F)F)c1)[C@H](O)[C@@H](O)CO.[Cl-] (some centres undefined),–
3500 nM,320 nM,0.6 µg/mL,185 nM,–,O=[N+]([O-])c1ccccc1CO[C@H]([C@H](O)[C@@H](O)CO)[C@H](O)C[S+]1C[C@@H](O)[C@H](O)[C@H]1CO.[Cl-] (some centres undefined),> 500000 nM
5300 nM,1900 nM,–,–,–,OC[C@@H]1[C@@H](O)[C@H](O)C[S+]1C[C@@H](O)[C@H](OCc1ccccc1)[C@H](O)[C@@H](O)CO (some centres undefined),–
18300 nM,5600 nM,–,–,–,OC[C@@H]1[C@@H](O)[C@H](O)C[S+]1C[C@@H](O)[C@H](OCc1ccc(Cl)cc1)[C@H](O)[C@@H](O)CO (some centres undefined),–
